Data on two molecules can be found in patent US20060093690A1, “Novel therapeutic use of polypodium extracts” (Especialidades Farmaceuticas Centrum, S.A., priority 2002, published 2006).

Data set [1] concerns Peyronie's patients. Briefly: Clinical trial on 34 Peyronie's patients for 6 months, Polypodium versus Tamoxifen. The format is in vivo, human. On the procedure:
(§1) The obtained results were statically significant.
(§2) The patients of Polypodium group were treated with 720 mg of Polypodium extract, orally, at 8-hourly intervals.
(§3) The patients of Tamoxifen group were treated with 20 mg of Tamoxifen, orally, at 24-hourly intervals.
The age was similar in both groups.
The plaque was assessed by physical examination and penis ecography.
Penis incurvation was assessed by photograph.

The test system of data set [2] is TGF-β. Kind of data set: TGF-β production in Peyronie's patients post treatment. The format is in vivo, human. The following applies: compared with initial values, Tamoxifen group. On the procedure: as §1, §2, §3
A 22% post treatment decrease in TGF-β production was found in Polypodium group when compared with initial values, against 5% in Tamoxifen group.

Data set [3] has as its system IL-10. Kind of data set: IL-10 production in Peyronie's patients post treatment. Conditions: compared with initial values. Type of data set: in vivo, human. On the procedure: as §1, §2, §3
Also, a 17% post treatment decrease in IL-10 production in Polypodium group when compared with initial values, against 79% in Tamoxifen group.

For data set [4] the following is noted: on administration; cited from earlier work.
The test system of data set [5] is Peyronie's disease. The following applies: comparative clinical study; cited from earlier work.
Data set [6] deals with Peyronie's patients. Conditions: 60 patients, 10 months; cited from earlier work.
Data set [7] has as its system TFG-β expression. Conditions: rats, Peyronie's disease by injection of TGF-β in penis; cited from earlier work.
[8] abbreviates: 6 months, oral, assessed by photograph.
[9] abbreviates: 6 months, oral, physical examination and penis ecography.

On to `CC/C(=C(\c1ccccc1)c1ccc(OCCN(C)C)cc1)c1ccccc1` [Tamoxifen], for which, in data set [1] (6 months, oral), the “Coital difficulty, Improv, % of patients” value is on record as 40%; the “Coital difficulty, Improv, number of patients” value came out at 6; the “Coital difficulty, Same, % of patients” value is 20%; the “Coital difficulty, Same, number of patients” value was 3. For the same molecule, in data set [1] (6 months, oral), the “Coital difficulty, Worse, % of patients” value is 40%; the “Coital difficulty, Worse, number of patients” value turned out to be 6; the “Pain, Improv, % of patients” value is recorded as 66%; the “Pain, Improv, number of patients” value is recorded as 10. Also, in data set [1] (6 months, oral), the “Pain, Same, % of patients” value is 33%; the “Pain, Same, number of patients” value is listed as 5; the “Pain, Worse, number of patients” value came out at 0; the “Penis incurvation, Same, % of patients” value stood at 33%. In addition, in data set [1] (6 months, oral), the “Penis incurvation, Same, number of patients” value stood at 5; the “Penis incurvation, Worse, % of patients” value was 20%; the “Penis incurvation, Worse, number of patients” value was found to be 3; the “Plaque, Same, % of patients” value is recorded as 53%. In addition, in data set [1] (6 months, oral), the “Plaque, Same, number of patients” value is 8; the “Plaque, Worse, % of patients” value is reported as 20%; the “Plaque, Worse, number of patients” value came out at 3. Further, in data set [1] (setting [8]), the “Penis incurvation, Improv, % of patients” value is 46% and the “Penis incurvation, Improv, number of patients” value is reported as 7. In data set [1] (setting [9]), the “Plaque, Improv, % of patients” value is on record as 27% and the “Plaque, Improv, number of patients” value was 4. The “patients of group satisfied after treatment” value in data set [1] (after treatment) is 45%. For the same molecule, the “post treatment decrease in TGF-β production” value in data set [2] was determined as 5%. For the same molecule, the “post treatment decrease in IL-10 production” value in data set [3] is listed as 79%. In data set [4], the adverse effects entry was “diminution of sexual desire and diminution of the eyaculate”. The results versus placebo in data set [5] is “similar”.

As to `COc1cc2c(c(OC)c1OC)-c1ccc(OC)c(=O)cc1[C@@H](NC(C)=O)CC2` [colchicin], in data set [6], the “penis incurvature improved, % of patients” value is reported as 30%; the “penis incurvature no change/unchanged, % of patients” value was 48%; the “penis incurvature worse/deteriorated, % of patients” value is 22%. The “effect on TFG-β expression” value in data set [7] is given as “reduces TFG-β expression”.
